# In patent publication US20240376138A1, “Crystal Forms, Preparation Method And Application Of Aryl Phosphine Oxide Compound” (Chengdu Di'Ao Jiuhong Pharmaceutical Factory, priority 2021, published 2024):
# Key:
# [1] = molecular target: Ba/F3 cells expressing EGFR-WT (Homo sapiens, UniProt P00533); test: Cell anti-proliferation experiment 1, BaF3 EGFR-WT wild-type cell line (CellTiter-Glo); type: cell-based; details: read-out: EGFR-WT IC50
# Experimental: (§3) Test purpose: to detect the effect of the test compounds on the proliferation of cell lines containing EGFR mutations in BaF3 cells • 2. […] Cell information: Cell lines containing EGFR mutations in BaF3 were from WuXiAppTec: • BaF3-cell lines expressing EGFR mutation • EGFR-T790M/Del19 • EGFR-C797S/Del19 • EGFR-T790M/L858R • EGFR-C797S/L858R • EGFR-C797S/T790M/L858R • EGFR-C797S/T790M/Del19 • EGFR-WT wild-type cell lines • 2.2. Test method • Day 0: Cells were seeded in a plate. • a. An ultraviolet lamp of a biological safety cabinet was turned on and countdown was started for 30 minutes. • b. A medium was preheated in a 37° C. water bath. • c. After the ultraviolet irradiation was finished, the biological safety cabinet was opened. The pre-heated medium, PBS, and the like, were wiped with alcohol and placed in the biological safety cabinet. • d. The cells were removed from an incubator, blown to a uniform cell suspension in the biological safety cabinet and counted. • e. Based on the cell counting results, the cell suspension was adjusted to a density of 3,000 cells per well and 50 microliters per well, and seeded in 384-well plates. • f. The cells after seeding were incubated in a 5% CO2 incubator at 37° C. for 3 hours. • g. Compounds were added to the cell plates using Tecan (liquid workstation). • Day 3: the cell plate added with the compounds and CTG (CellTiter-Glo chemiluminescence cell activity assay reagent) were equilibrated at room temperature, 25 μl of CTG was added to each well, centrifuged at 1,000 rpm for 1 minute, and shaken for 1-2 minutes. And centrifuging for 1 minute at 1,000 rpm again, the cell plates were allowed to settle for 10 minutes to detect a signal value in Envision. The IC50 of each compound was calculated by computer fitting with XL-Fit analysis software (the IC50 of the compound on the cell activity inhibition could be obtained by reading the concentrations of the corresponding compounds at 500 inhibition rate). Inhibition rate % C (reading value of the control group without drug−reading value of the sample)/reading value of the control group without drug×100. • 3.
# [2] = molecular target: Ba/F3 cells expressing EGFR-C797S/T790M/Del19 (Homo sapiens, UniProt P00533, T790M/C797S, cells depend on it, form not given); test: Cell anti-proliferation experiment 1, BaF3 cells expressing EGFR mutation (CellTiter-Glo); type: cell-based; details: read-out: EGFR-C797S/T790M/Del19 IC50
# Chain of Ba/F3 cells expressing EGFR-C797S/T790M/Del19 (P00533 with tags, fused parts or gaps DEL746-750/T790M/C797S, form open): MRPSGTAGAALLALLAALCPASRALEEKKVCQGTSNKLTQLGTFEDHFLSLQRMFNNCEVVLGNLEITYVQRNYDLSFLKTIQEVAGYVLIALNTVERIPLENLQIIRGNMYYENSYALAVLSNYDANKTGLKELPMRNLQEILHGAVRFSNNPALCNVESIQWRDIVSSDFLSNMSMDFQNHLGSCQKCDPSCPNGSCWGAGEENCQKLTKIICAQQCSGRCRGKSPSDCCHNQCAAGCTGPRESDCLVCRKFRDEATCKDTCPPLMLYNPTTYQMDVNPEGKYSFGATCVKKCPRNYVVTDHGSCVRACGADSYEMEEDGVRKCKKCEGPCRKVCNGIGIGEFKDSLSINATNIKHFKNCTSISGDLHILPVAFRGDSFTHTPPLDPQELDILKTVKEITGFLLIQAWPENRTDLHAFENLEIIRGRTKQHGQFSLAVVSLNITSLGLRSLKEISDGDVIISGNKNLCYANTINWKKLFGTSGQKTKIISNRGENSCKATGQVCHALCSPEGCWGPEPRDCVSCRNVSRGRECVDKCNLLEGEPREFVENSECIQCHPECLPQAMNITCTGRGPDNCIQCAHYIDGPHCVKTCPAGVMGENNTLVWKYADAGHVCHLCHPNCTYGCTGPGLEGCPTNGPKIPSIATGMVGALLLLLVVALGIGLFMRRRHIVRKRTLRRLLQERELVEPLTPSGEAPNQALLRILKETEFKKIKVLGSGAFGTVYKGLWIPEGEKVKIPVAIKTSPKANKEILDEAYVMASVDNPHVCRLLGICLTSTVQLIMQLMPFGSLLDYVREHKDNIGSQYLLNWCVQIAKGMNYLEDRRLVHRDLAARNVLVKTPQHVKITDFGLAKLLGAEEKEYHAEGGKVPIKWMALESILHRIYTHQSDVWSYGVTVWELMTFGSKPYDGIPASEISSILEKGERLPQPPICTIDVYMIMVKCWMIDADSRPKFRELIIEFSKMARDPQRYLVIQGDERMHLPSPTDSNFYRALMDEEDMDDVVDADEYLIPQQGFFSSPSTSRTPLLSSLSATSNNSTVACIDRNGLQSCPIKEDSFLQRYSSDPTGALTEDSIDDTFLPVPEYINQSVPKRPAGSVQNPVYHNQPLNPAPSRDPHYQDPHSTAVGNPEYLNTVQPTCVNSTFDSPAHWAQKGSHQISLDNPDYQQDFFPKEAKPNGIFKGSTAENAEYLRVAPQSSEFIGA
# [3] = molecular target: T1, BaF3 cells expressing EML-4-ALK-WT (Homo sapiens, UniProt Q9UM73); test: Cell anti-proliferation experiment 3, BaF3 cells with ALK fusion (CellTiter-Glo); type: cell-based; details: 3 days, CTG, read-out: EML-4-ALK-WT IC50
# T1 construct: fused on or other part: Q9HC35 (Echinoderm microtubule-associated protein-like 4)
# From the text: (§1) • 1. […] Test information: • 2.1. Cell information: Cell lines containing ALK mutations in BaF3 were from WuXiAppTec: • Ba/F3-cell lines expressing ALK gene fusion and mutation • Ba/F3-EML-4-ALK-WT • Ba/F3-EML-4-ALK-L 1196M • 2.2.
# (§2) Test results: The IC50 values of the compound DA and the control compound against BaF3 cells expressing EML-4-ALK-WT and EML-4-ALK-L1196M are shown in Table 22. • 4.
# [4] = molecular target: Ba/F3 cells expressing EGFR-T790M/Del19 (Homo sapiens, UniProt P00533, T790M, cells depend on it, form not given); test: Cell anti-proliferation experiment 1, BaF3 cells expressing EGFR mutation (CellTiter-Glo); type: cell-based; details: 3 days, CTG, read-out: EGFR-T790M/Del19 IC50
# Chain of Ba/F3 cells expressing EGFR-T790M/Del19 (P00533 with tags, fused parts or gaps DEL746-750/T790M, form open): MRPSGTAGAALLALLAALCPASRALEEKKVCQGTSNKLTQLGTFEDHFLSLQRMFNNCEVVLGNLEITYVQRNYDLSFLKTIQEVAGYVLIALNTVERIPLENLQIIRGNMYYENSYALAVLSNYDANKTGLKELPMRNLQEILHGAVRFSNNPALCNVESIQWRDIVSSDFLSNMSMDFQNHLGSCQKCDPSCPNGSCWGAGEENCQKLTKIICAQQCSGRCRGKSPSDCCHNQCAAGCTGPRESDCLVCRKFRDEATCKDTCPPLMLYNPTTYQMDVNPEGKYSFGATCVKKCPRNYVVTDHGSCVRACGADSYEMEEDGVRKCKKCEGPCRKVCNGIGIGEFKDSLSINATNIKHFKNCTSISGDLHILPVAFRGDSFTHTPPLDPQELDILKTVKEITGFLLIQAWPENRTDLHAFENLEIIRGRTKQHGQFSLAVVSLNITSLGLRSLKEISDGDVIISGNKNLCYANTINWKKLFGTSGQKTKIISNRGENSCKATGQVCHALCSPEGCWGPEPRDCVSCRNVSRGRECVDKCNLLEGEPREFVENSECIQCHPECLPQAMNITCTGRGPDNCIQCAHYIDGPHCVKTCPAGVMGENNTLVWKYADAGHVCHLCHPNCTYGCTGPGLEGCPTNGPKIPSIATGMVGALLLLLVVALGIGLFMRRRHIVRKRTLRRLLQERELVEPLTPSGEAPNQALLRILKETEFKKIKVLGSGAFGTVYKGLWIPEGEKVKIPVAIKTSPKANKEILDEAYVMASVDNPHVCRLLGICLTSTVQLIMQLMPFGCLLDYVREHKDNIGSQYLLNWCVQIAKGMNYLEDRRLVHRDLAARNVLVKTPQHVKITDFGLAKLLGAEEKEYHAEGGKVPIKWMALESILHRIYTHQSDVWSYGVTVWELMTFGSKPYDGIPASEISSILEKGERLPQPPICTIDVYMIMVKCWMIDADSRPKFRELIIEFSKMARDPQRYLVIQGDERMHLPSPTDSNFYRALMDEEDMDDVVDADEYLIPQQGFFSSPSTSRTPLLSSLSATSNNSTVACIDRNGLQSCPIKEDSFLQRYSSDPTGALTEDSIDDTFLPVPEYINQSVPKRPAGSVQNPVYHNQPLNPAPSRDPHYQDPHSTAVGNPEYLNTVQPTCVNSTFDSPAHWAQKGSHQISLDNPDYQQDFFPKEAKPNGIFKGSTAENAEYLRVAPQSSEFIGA
# [5] = molecular target: Ba/F3 cells expressing EGFR-C797S/T790M/L858R (Homo sapiens, UniProt P00533, T790M/C797S/L858R, cells depend on it); test: as above; type: cell-based; details: read-out: EGFR-C797S/T790M/L858R IC50
# Chain of Ba/F3 cells expressing EGFR-C797S/T790M/L858R (P00533 whole entry T790M/C797S/L858R, the tested form may be a part): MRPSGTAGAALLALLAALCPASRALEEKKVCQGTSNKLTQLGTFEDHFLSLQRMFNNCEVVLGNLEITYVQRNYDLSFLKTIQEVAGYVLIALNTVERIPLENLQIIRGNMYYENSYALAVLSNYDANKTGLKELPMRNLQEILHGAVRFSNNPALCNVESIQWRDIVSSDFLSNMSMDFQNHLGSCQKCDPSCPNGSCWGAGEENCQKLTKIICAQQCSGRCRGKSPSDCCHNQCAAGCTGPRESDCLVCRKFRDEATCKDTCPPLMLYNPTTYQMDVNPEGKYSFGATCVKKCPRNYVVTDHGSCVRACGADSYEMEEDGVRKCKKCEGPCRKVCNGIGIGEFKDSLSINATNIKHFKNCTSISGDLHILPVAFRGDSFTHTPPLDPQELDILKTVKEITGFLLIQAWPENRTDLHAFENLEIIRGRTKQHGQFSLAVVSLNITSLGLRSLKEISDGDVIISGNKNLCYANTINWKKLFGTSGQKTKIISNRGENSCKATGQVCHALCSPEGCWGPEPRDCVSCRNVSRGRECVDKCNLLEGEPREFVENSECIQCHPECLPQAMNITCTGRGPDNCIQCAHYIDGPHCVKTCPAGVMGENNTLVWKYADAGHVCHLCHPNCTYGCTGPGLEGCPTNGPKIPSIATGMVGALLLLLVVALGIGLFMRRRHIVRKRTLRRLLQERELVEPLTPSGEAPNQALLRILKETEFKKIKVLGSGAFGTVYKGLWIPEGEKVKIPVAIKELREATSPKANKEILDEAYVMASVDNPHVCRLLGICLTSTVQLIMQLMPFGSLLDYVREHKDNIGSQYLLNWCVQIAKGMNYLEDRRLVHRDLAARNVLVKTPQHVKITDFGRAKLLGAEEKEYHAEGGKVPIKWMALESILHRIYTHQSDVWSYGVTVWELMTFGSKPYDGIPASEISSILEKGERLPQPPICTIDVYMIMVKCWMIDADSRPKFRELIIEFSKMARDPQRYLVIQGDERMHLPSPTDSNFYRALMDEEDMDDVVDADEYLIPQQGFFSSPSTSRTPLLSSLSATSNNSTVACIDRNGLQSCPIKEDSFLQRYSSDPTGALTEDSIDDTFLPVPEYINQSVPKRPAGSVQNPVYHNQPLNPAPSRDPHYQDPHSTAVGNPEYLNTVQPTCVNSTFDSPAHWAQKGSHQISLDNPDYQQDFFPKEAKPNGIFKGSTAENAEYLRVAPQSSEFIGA
# Experimental: as §3
# [6] = molecular target: T2, BaF3 cells expressing EML-4-ALK-L1196M (Homo sapiens, UniProt Q9UM73, L1196M, cells depend on it); test: Cell anti-proliferation experiment 3, BaF3 cells with ALK fusion and mutation (CellTiter-Glo); type: cell-based; details: 3 days, CTG, read-out: EML-4-ALK-L1196M IC50
# T2 construct: fused on or other part: Q9HC35 (Echinoderm microtubule-associated protein-like 4)
# From the text: as §1, §2
# [7] = molecular target: Ba/F3 cells expressing EGFR-C797S/Del19 (Homo sapiens, UniProt P00533, C797S, cells depend on it, form not given); test: Cell anti-proliferation experiment 1, BaF3 cells expressing EGFR mutation (CellTiter-Glo); type: cell-based; details: 3 days, CTG, read-out: EGFR-C797S-Del19 IC50
# [8] = Stability test 3: long-term and accelerated conditions; type: physicochemical; details: Long-term (25° C. ± 2° C., 65% RH ± 10% RH)
# [9] = Comparative experiment of hygroscopicity (Chinese Pharmacopoeia 2020); type: physicochemical; details: for Hygroscopicity: class by weight gain after 24 h; for Weight gain % after 24 h: hygroscopicity test
# From the text: The description of hygroscopic characteristics and the definition of hygroscopic weight gain are as follows: • Deliquescence: absorbs sufficient amount of water to form a liquid; • Very hygroscopic: the weight gain by hygroscopy is not less than 15%; • Hygroscopic: the weight gain by hygroscopy is less than 15% but not less than 2%; • Slightly hygroscopic: the weight gain by hygroscopy is less than 2% but not less than 0.2%; and
# Not or almost not hygroscopic: the weight gain by hygroscopy is less than 0.2% from hygroscopicity.
# [10] = High temperature and illumination stability test of crystal forms 1-3; type: physicochemical; details: Illumination (illuminance: 5000Lx), Day 0 (Table 18-1)
# [11] = as above; type: physicochemical; details: for Traits: Day 10 (Table 18-1)
# From the text: The stabilities of crystal form 2 and crystal form 3 under high temperature, illumination and long-term conditions were investigated.
# Solubility test = type: physicochemical; details: Solution with pH = 6.8, 25° C.±2° C.
# [12] = High temperature (50° C.), Day 10
# [13] = High temperature (50° C.), Day 30
# [14] = Illumination (illuminance: 5000Lx), Day 10
# [15] = Illumination (illuminance: 5000Lx)
# [16] = Illumination (illuminance: 5000Lx), Day 30
# Chain of Ba/F3 cells expressing EGFR-WT (P00533 whole entry, stated change not applied): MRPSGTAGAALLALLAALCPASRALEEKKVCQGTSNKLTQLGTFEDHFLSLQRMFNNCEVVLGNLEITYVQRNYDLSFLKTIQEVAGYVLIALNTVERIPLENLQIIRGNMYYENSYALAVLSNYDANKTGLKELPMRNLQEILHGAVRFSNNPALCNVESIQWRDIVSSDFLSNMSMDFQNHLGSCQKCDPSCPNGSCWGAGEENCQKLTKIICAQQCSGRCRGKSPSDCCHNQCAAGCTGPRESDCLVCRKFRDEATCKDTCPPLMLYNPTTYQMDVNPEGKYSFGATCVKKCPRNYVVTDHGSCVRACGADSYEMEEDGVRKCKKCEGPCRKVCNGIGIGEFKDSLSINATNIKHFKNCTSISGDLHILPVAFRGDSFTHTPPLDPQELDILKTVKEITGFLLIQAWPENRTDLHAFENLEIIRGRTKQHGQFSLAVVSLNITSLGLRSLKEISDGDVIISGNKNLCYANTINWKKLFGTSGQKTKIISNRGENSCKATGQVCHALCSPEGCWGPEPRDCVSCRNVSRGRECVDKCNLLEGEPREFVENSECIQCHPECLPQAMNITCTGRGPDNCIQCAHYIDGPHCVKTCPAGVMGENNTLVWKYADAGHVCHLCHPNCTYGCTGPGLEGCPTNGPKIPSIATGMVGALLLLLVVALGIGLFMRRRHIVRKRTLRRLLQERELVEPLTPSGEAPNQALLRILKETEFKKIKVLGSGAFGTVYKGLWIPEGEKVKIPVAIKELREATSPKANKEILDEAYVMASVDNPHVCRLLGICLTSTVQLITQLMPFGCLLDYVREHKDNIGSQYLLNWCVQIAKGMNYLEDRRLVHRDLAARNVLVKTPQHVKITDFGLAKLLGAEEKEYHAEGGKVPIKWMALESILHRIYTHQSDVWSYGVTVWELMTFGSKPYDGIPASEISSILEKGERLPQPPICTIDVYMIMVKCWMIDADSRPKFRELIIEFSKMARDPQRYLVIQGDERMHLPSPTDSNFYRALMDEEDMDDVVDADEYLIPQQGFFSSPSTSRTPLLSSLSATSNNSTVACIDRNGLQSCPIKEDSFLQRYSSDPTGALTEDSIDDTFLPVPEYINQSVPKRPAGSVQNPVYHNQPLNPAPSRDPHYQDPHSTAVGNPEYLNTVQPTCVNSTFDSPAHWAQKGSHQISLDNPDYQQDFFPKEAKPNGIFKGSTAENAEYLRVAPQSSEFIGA
GI50 [1] [nM],GI50 [2] [nM],GI50 [3] [nM],GI50 [4] [nM],GI50 [5] [nM],GI50 [6] [nM],GI50 [7] [nM],SMILES,Traits ([8]; Day 0),Traits ([8]; Day 30),Hygroscopicity [9],Weight gain % after 24 h [9] [%],Traits [10],purity ([11]; Day 0),the number of impurities above the reporting limit ([11]; Day 0),total impurities ([11]; Day 0),"purity [11, 12]","the number of impurities above the reporting limit [11, 12]","total impurities [11, 12]","purity [11, 13]","the number of impurities above the reporting limit [11, 13]",further results
2340,192,39.4,216,566,50.2,203,COc1cc(N2CCC(N3CCN(C)CC3)CC2)ccc1Nc1ncc(Cl)c(Nc2ccc(C)cc2P(C)(C)=O)n1 [Control compound 3],,,,,,,,,,,,,,
,,,,,,,"COc1cc(N2CCC(N3CCN(C)CC3)CC2)c(C)cc1Nc1ncc(Br)c(Nc2ccc(C)cc2P(C)(C)=O)n1 [Crystal form 3, (2-((5-bromo-2-((2-methoxy-5-methyl-4-(4-(4-methylpiperazin-1-yl)piperidin-1-yl)phenyl)amino)pyrimidin-4-yl)amino)-5-methylphenyl)dimethylphosphorus oxide]",Off-white,Light yellow,Slightly hygroscopic (the weight gain by hygroscopy is less than 2% but not less than 0.2%),1.49,off-white,purity: 99.44%;,limit is 7;,0.56%,99.28%; the,limit is 7; total,impurities: 0.72%,98.89%; the,limit is 10;,"total impurities ([11]; Day 0, listed as crystal form 3): 0.56%; total impurities [11, 13]: 1.11%; purity [11, 14]: purity: 98.83%;; the number of impurities above the reporting limit [11, 14]: limit is 10;; total impurities [11, 14]: 1.17%; Traits [11, 15]: light yellow; purity [11, 16]: purity: 96.95%;; the number of impurities above the reporting limit [11, 16]: limit is 17;; total impurities [11, 16]: 3.05%; total impurities ([11]; Illumination (illuminance: 5000Lx), Day 30, listed as crystal form 3): 3.05%; Solubility for 24 h (Solubility test): 1230 µg/mL"
,,,,,,,"COc1cc(N2CCC(N3CCN(C)CC3)CC2)c(C)cc1Nc1ncc(Br)c(Nc2ccc(C)cc2P(C)(C)=O)n1 [Crystal form 2, (2-((5-bromo-2-((2-methoxy-5-methyl-4-(4-(4-methylpiperazin-1-yl)piperidin-1-yl)phenyl)amino)pyrimidin-4-yl)amino)-5-methylphenyl)dimethylphosphorus oxide]",Off-white,Light yellow,Slightly hygroscopic (the weight gain by hygroscopy is less than 2% but not less than 0.2%),1.35,off-white,purity: 99.37%,limit is 7 total,impurities: 0.63%,99.20% the,limit is 9 total,impurities: 0.80%,purity: 98.72%;,limit is 13;,"total impurities ([11]; Day 0, listed as crystal form 2): 0.63%; total impurities [11, 13]: 1.28%; purity [11, 14]: 99.01% the; the number of impurities above the reporting limit [11, 14]: limit is 10 total; total impurities [11, 14]: impurities: 0.99%; Traits [11, 15]: light yellow; purity [11, 16]: purity: 98.0%;; the number of impurities above the reporting limit [11, 16]: limit is 14;; total impurities [11, 16]: 2.0%; total impurities ([11]; Illumination (illuminance: 5000Lx), Day 30, listed as crystal form 2): 2.0%; Solubility for 24 h (Solubility test): 1360 µg/mL"
1760,221,43.6,172,583,47.4,177,COc1cc(N2CCC(N3CCN(C)CC3)CC2)c(C)cc1Nc1ncc(Cl)c(Nc2ccccc2P(C)(C)=O)n1 [Control compound 2],,,,,,,,,,,,,,
